One block for each molecule: values may come before it.
Tested on: 349418-098-R-PDC complex spheroid growth
Assay: Anticancer human tumor 349418-098-R-PDC patient-derived lung adenocarcinoma cell line growth inhibition [AhR]
Settings: for IC50: curve of first compound; for viability, T/C: stronger effect = lower value
Summary of the method: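 Complex tumor spheroids co-cultured with HUVEC and human MSC stroma; AhR antagonists tested in combination with standard-of-care and investigational agents. Top concentration at or near clinical Cmax (else 10 microM), half-log dilutions; growth expressed as percent test/control.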

[1] = second compound 0.1 µM, first compound 0.0316 µM
[2] = second compound 0.1 µM, first compound 0.1 µM
[3] = second compound 0.1 µM, first compound 0.316 µM
[4] = second compound 0.1 µM, first compound 1 µM
[5] = second compound 0.1 µM, first compound 3.16 µM
[6] = second compound 0.1 µM, first compound 10 µM
[7] = second compound 0.316 µM, first compound 0.0316 µM
[8] = second compound 0.316 µM, first compound 0.1 µM
[9] = second compound 0.316 µM, first compound 0.316 µM
[10] = second compound 0.316 µM, first compound 1 µM
[11] = second compound 0.316 µM, first compound 3.16 µM
[12] = second compound 0.316 µM, first compound 10 µM
[13] = second compound 1 µM, first compound 0.0316 µM
[14] = second compound 1 µM, first compound 0.1 µM
[15] = second compound 1 µM, first compound 0.316 µM
[16] = second compound 1 µM, first compound 1 µM
[17] = second compound 1 µM, first compound 3.16 µM
[18] = second compound 1 µM, first compound 10 µM
[19] = second compound 3.16 µM, first compound 0.0316 µM
[20] = second compound 3.16 µM, first compound 0.1 µM
[21] = second compound 3.16 µM, first compound 0.316 µM
[22] = second compound 3.16 µM, first compound 1 µM
[23] = second compound 3.16 µM, first compound 3.16 µM
[24] = second compound 3.16 µM, first compound 10 µM
[25] = second compound 10 µM, first compound 0.0316 µM
[26] = second compound 10 µM, first compound 0.1 µM
[27] = second compound 10 µM, first compound 0.316 µM
[28] = second compound 10 µM, first compound 1 µM
[29] = second compound 10 µM, first compound 3.16 µM
[30] = second compound 10 µM, first compound 10 µM
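Also: spheroids exposed to agents for seven days before luminescence viability read.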
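For viability, T/C in this document: spheroids also contain HUVEC endothelial cells and human MSC stroma.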

Compound: CC1(C)CCC(CN2CCN(c3ccc(C(=O)NS(=O)(=O)c4ccc(NCC5CCOCC5)c([N+](=O)[O-])c4)c(Oc4cnc5[nH]ccc5c4)c3)CC2)=C(c2ccc(Cl)cc2)C1 + Cc1ccccc1N=Nc1ccc(NC(=O)c2ccnn2C)c(C)c1
- IC50 (second compound 0.1 µM): 5800 nM
- IC50 (second compound 0.316 µM): 6030 nM
- IC50 (second compound 1 µM): 6540 nM
- IC50 (second compound 3.16 µM): 3540 nM
- IC50 (second compound 10 µM): 3260 nM
- viability, T/C [1]: 116%
- viability, T/C [2]: 111%
- viability, T/C [3]: 116%
- viability, T/C [4]: 92.9%
- viability, T/C [5]: 71.6%
- viability, T/C [6]: 31.6%
- viability, T/C [7]: 81.5%
- viability, T/C [8]: 81.1%
- viability, T/C [9]: 64.4%
- viability, T/C [10]: 70%
- viability, T/C [11]: 86.1%
- viability, T/C [12]: 29.1%
- viability, T/C [13]: 101%
- viability, T/C [14]: 82.1%
- viability, T/C [15]: 84.7%
- viability, T/C [16]: 79.7%
- viability, T/C [17]: 85.7%
- viability, T/C [18]: 29.2%
- viability, T/C [19]: 76.9%
- viability, T/C [20]: 65.9%
- viability, T/C [21]: 73.3%
- viability, T/C [22]: 66.1%
- viability, T/C [23]: 52%
- viability, T/C [24]: 26%
- viability, T/C [25]: 54.6%
- viability, T/C [26]: 59.8%
- viability, T/C [27]: 65.1%
- viability, T/C [28]: 51.8%
- viability, T/C [29]: 52%
- viability, T/C [30]: 25.9%

Compound: CCN(c1cc(-c2ccc(CN3CCOCC3)cc2)cc(C(=O)NCc2c(C)cc(C)[nH]c2=O)c1C)C1CCOCC1 + Cc1ccccc1N=Nc1ccc(NC(=O)c2ccnn2C)c(C)c1
- IC50 (second compound 0.1 µM): > 3000 nM
- IC50 (second compound 0.316 µM): > 3000 nM
- IC50 (second compound 1 µM): 1550 nM
- IC50 (second compound 3.16 µM): 1450 nM
- IC50 (second compound 10 µM): 154 nM
- viability, T/C (second compound 0.1 µM, first compound 0.00949 µM): 68.2%
- viability, T/C (second compound 0.1 µM, first compound 0.03 µM): 97.2%
- viability, T/C (second compound 0.1 µM, first compound 0.0949 µM): 67.4%
- viability, T/C (second compound 0.1 µM, first compound 0.3 µM): 56.3%
- viability, T/C (second compound 0.1 µM, first compound 0.949 µM): 86.4%
- viability, T/C (second compound 0.1 µM, first compound 3 µM): 53.1%
- viability, T/C (second compound 0.316 µM, first compound 0.00949 µM): 101%
- viability, T/C (second compound 0.316 µM, first compound 0.03 µM): 69.1%
- viability, T/C (second compound 0.316 µM, first compound 0.0949 µM): 95.9%
- viability, T/C (second compound 0.316 µM, first compound 0.3 µM): 72.4%
- viability, T/C (second compound 0.316 µM, first compound 0.949 µM): 70.4%
- viability, T/C (second compound 0.316 µM, first compound 3 µM): 64%
- viability, T/C (second compound 1 µM, first compound 0.00949 µM): 87.8%
- viability, T/C (second compound 1 µM, first compound 0.03 µM): 121%
- viability, T/C (second compound 1 µM, first compound 0.0949 µM): 85.5%
- viability, T/C (second compound 1 µM, first compound 0.3 µM): 78.3%
- viability, T/C (second compound 1 µM, first compound 0.949 µM): 56.5%
- viability, T/C (second compound 1 µM, first compound 3 µM): 42%
- viability, T/C (second compound 3.16 µM, first compound 0.00949 µM): 76.8%
- viability, T/C (second compound 3.16 µM, first compound 0.03 µM): 68.9%
- viability, T/C (second compound 3.16 µM, first compound 0.0949 µM): 75.2%
- viability, T/C (second compound 3.16 µM, first compound 0.3 µM): 59%
- viability, T/C (second compound 3.16 µM, first compound 0.949 µM): 55.8%
- viability, T/C (second compound 3.16 µM, first compound 3 µM): 42.3%
- viability, T/C (second compound 10 µM, first compound 0.00949 µM): 59.4%
- viability, T/C (second compound 10 µM, first compound 0.03 µM): 71.1%
- viability, T/C (second compound 10 µM, first compound 0.0949 µM): 54.9%
- viability, T/C (second compound 10 µM, first compound 0.3 µM): 38.4%
- viability, T/C (second compound 10 µM, first compound 0.949 µM): 49.2%
- viability, T/C (second compound 10 µM, first compound 3 µM): 42.1%

Compound: Cn1ncnc1C1c2n[nH]c(=O)c3cc(F)cc(c23)NC1c1ccc(F)cc1 (stereo not given) + Cc1ccccc1N=Nc1ccc(NC(=O)c2ccnn2C)c(C)c1
- IC50 (second compound 0.1 µM): > 100 nM
- IC50 (second compound 0.316 µM): > 100 nM
- IC50 (second compound 1 µM): > 100 nM
- IC50 (second compound 3.16 µM): > 100 nM
- IC50 (second compound 10 µM): > 100 nM
- viability, T/C (second compound 0.1 µM, first compound 0.000316 µM): 106%
- viability, T/C (second compound 0.1 µM, first compound 0.001 µM): 93.8%
- viability, T/C (second compound 0.1 µM, first compound 0.00316 µM): 118%
- viability, T/C (second compound 0.1 µM, first compound 0.01 µM): 56.1%
- viability, T/C [1]: 99.1%
- viability, T/C [2]: 67.4%
- viability, T/C (second compound 0.316 µM, first compound 0.000316 µM): 110%
- viability, T/C (second compound 0.316 µM, first compound 0.001 µM): 87.2%
- viability, T/C (second compound 0.316 µM, first compound 0.00316 µM): 113%
- viability, T/C (second compound 0.316 µM, first compound 0.01 µM): 74.1%
- viability, T/C [7]: 115%
- viability, T/C [8]: 71.6%
- viability, T/C (second compound 1 µM, first compound 0.000316 µM): 82.9%
- viability, T/C (second compound 1 µM, first compound 0.001 µM): 102%
- viability, T/C (second compound 1 µM, first compound 0.00316 µM): 106%
- viability, T/C (second compound 1 µM, first compound 0.01 µM): 89.9%
- viability, T/C [13]: 94.2%
- viability, T/C [14]: 80.6%
- viability, T/C (second compound 3.16 µM, first compound 0.000316 µM): 72.1%
- viability, T/C (second compound 3.16 µM, first compound 0.001 µM): 90.2%
- viability, T/C (second compound 3.16 µM, first compound 0.00316 µM): 98.8%
- viability, T/C (second compound 3.16 µM, first compound 0.01 µM): 79%
- viability, T/C [19]: 71.4%
- viability, T/C [20]: 63.6%
- viability, T/C (second compound 10 µM, first compound 0.000316 µM): 61.5%
- viability, T/C (second compound 10 µM, first compound 0.001 µM): 71.8%
- viability, T/C (second compound 10 µM, first compound 0.00316 µM): 76.2%
- viability, T/C (second compound 10 µM, first compound 0.01 µM): 51.2%
- viability, T/C [25]: 70.8%
- viability, T/C [26]: 55.6%

More lines, main results first:

- IC50 (second compound 0.1 µM): 105 nM
- IC50 (second compound 0.316 µM): 157 nM
- IC50 (second compound 1 µM): 65.7 nM
- IC50 (second compound 3.16 µM): < 31.6 nM
- IC50 (second compound 10 µM): < 31.6 nM
Compound: COc1cc(Nc2ncc3c(n2)-c2ccc(Cl)cc2C(c2c(F)cccc2OC)=NC3)ccc1C(=O)O + Cc1ccccc1N=Nc1ccc(NC(=O)c2ccnn2C)c(C)c1
- viability, T/C [1]: 70.5%
- viability, T/C [2]: 50.9%
- viability, T/C [3]: 30.5%
- viability, T/C [4]: 30.8%
- viability, T/C [5]: 33.5%
- viability, T/C [6]: 31.1%
- viability, T/C [7]: 64.8%
- viability, T/C [8]: 63%
- viability, T/C [9]: 29.8%
- viability, T/C [10]: 28.5%
- viability, T/C [11]: 23.4%
- viability, T/C [12]: 26%
- viability, T/C [13]: 71.8%
- viability, T/C [14]: 36.6%
- viability, T/C [15]: 34.4%
- viability, T/C [16]: 32.3%
- viability, T/C [17]: 30.5%
- viability, T/C [18]: 26.5%
- viability, T/C [19]: 48.7%
- viability, T/C [20]: 38.1%
- viability, T/C [21]: 32.2%
- viability, T/C [22]: 27.1%
- viability, T/C [23]: 26.8%
- viability, T/C [24]: 26.6%
- viability, T/C [25]: 38.9%
- viability, T/C [26]: 29.7%
- viability, T/C [27]: 32.2%
- viability, T/C [28]: 27.1%
- viability, T/C [29]: 23.6%
- viability, T/C [30]: 27.1%

- IC50 (second compound 0.1 µM): 287 nM
- IC50 (second compound 0.316 µM): 196 nM
- IC50 (second compound 1 µM): 221 nM
- IC50 (second compound 3.16 µM): 131 nM
- IC50 (second compound 10 µM): 63.7 nM
Compound: NS(=O)(=O)OCC1CC(n2ccc3c(NC4CCc5ccccc54)ncnc32)CC1O (stereo not given) + Cc1ccccc1N=Nc1ccc(NC(=O)c2ccnn2C)c(C)c1
- viability, T/C [1]: 96.6%
- viability, T/C [2]: 81.3%
- viability, T/C [3]: 46.1%
- viability, T/C [4]: 22.6%
- viability, T/C [5]: 11.4%
- viability, T/C [6]: 10.5%
- viability, T/C [7]: 75%
- viability, T/C [8]: 63.8%
- viability, T/C [9]: 39.2%
- viability, T/C [10]: 24.9%
- viability, T/C [11]: 11.8%
- viability, T/C [12]: 10.2%
- viability, T/C [13]: 90.4%
- viability, T/C [14]: 71.1%
- viability, T/C [15]: 39%
- viability, T/C [16]: 23.5%
- viability, T/C [17]: 12%
- viability, T/C [18]: 10.1%
- viability, T/C [19]: 68.5%
- viability, T/C [20]: 58.1%
- viability, T/C [21]: 26.3%
- viability, T/C [22]: 20.2%
- viability, T/C [23]: 11.9%
- viability, T/C [24]: 9.47%
- viability, T/C [25]: 65.3%
- viability, T/C [26]: 38.9%
- viability, T/C [27]: 27.1%
- viability, T/C [28]: 18%
- viability, T/C [29]: 10.8%
- viability, T/C [30]: 9.27%
